How the values were obtained:
progranulin (PGRN) = test: Progranulin (PGRN) protein expression in Neuro2a whole cell lysates by immunoblotting; type: cell-based, mouse; settings: Neuro2a cells, 48 hours; for PGRN levels compared to DMSO: highest concentrations, N=4; for progranulin protein levels by immunoblotting: increasing doses, whole cell lysates
Protocol: FIG. 6. Protein analysis using immuoblotting. Neuro2a cells were treated with in increasing doses for 48 hours and whole cell lysates were analyzed for progranulin (PGRN) protein expression using immunobloting. N=4.
FIG. 7. Graphical analysis of protein quantification using immunoblotting. Whole cell lysates were analyzed for progranulin (PGRN) protein expression using immunoblotting and were graphically plotted to show changes in band intensity. PGRN levels doubled compared to DMSO at the highest concentrations. N=4.
Immunoblotting and Quantification. Cells were lysed in radioimmune precipitation assay buffer (50 mM Tris-HCl (pH 7.4), 150 mM NaCl, 1 mM EDTA, 1% Triton X-100, 1% sodium deoxycholate, 0.1% SDS, and Roche Complete protease inhibitor mixture) and cleared by centrifugation at 20,000×g for 10 min. 0.5-ml cell culture supernatants containing 1% FBS were concentrated by centrifugation at 14,000×g for 50 min in Millipore Amicon Ultra devices (3-kDa cutoff). 15-20 μg of total protein was separated by SDS-PAGE and transferred to nitrocellulose membranes. Membranes were blocked in 5% milk for 1 hr and probed overnight with primary antibodies at 4° C. Mouse progranulin was detected with linker-3 anti-progranulin antibody at 1:5000 dilution, β-actin with anti-β-actin antibody (Sigma A2228) at 1:5000 dilution, human progranulin with anti-PC cell-derived growth factor antibody (Invitrogen) at 1:1000 dilution, and GAPDH with anti-GAPDH antibody (Sigma) at 1:10,000 dilution. Bound IgG was detected by ECL. For quantitative immunoblotting, secondary antibodies labeled with IRDye® infrared dyes and an Odyssey® infrared imager (LI-COR Biosciences) were used following the manufacturer's instructions.

progranulin promoter = test: Luciferase reporter assay in Neuro2A #48 cells (human GRN start codon fused to firefly luciferase); type: cell-based, mouse; settings: for Luciferase activity over DMSO control: Neuro2A #48 cells, 24 hrs after compound addition, increasing concentrations
Protocol: Plasmids and Cell Lines. The firefly luciferase coding sequence was fused by bacterial recombination to the authentic human GRN start codon in exon 2 (NM_002087.2) on a bacterial artificial chromosome (BACPAC RP11-812N09), and stably transfected Neuro-2a cells were derived.
Library Screening and Luciferase Reporter Assays. Neuro-2a cells were assayed in 384-well plates (3000 cells/well). 6 hrs after cell plating, 1200 Prestwick Chemical Library® compounds in DMSO, including internal controls, were dispensed using a BioMek FX system to final concentrations of 2.5 μM compound and 1% DMSO (unless indicated otherwise). Sodium butyrate (9 mM) was used as a positive control on each plate for initial screening. Luciferase activity was measured 24 hr after compound addition using Bright-Glo™ reagent (20 μl/well; Promega). Each well was normalized to the average luminescence from DMSO-treated wells on the same plate.
Technical details of HTS screen. Cell type used: Neuro-2a #48 cell line was cultured in DMEM (High glucose)/10%FBS/Pen-Strep/Zeocin (200 μg/mL) and plated in same media without Zeocin. All media is sterile filtered before use. The firefly luciferase coding sequence was fused by bacterial recombination to the authentic human GRN start codon in exon 2 (NM_002087.2) on a bacterial artificial chromosome (BACPAC RP11-812N09), and stably transfected Neuro-2a cells were derived (Cenik et al., 2011). Cells are put into single cell suspension and strained with 70 μm cell strainers before counting. The concentration of cells is adjusted to 150,000 cells/ml.
384 well plates were used for the assay: 50 μL of the cell suspension are added to each well for a final cell number per well of 7,500. Plates are spun down after plating and incubated at 37° C. under 5% CO2. Compound addition takes place 4 hours after plating. Test compounds are in columns 3-22. The vehicle control wells are in columns 2 and 23. The positive control, SAHA (3 μM), is plated in column 1 An untreated control (no DMSO) is in column 24. The plates are assayed for reporter activity 24 hrs after compound addition. All media is spun out of the plates and 20 μL of bright glo is added to each well and placed on shaker for 3-5 minutes. After shaking, plates are read and check from increases in activation over DMSO. Vehicle (DMSO) was used for baseline because it causes a slight activation of luciferase construct. […] All compounds were added from DMSO stocks and added at 0.5 μL per well (1% DMSO). All plates are read on an EnVision multilabel plate reader in luminescence mode. The data is then parsed into GeneData Screener v11 and quality controlled visually. Z′ values are calculated using the DMSO and SAHA controls. Plates that have a Z′ value less than 0.45 are further scrutinized. If the latter show systematic effects or if known errors occurred in these plates, they are repeated in a separate experiment. Data are then normalized and analyzed as previously described (Kim et al., 2013).

Progranulin MEF cells = test: Lysosome rescue (lysotracker) in Progranulin MEF cells; type: cell-based, mouse; settings: one concentration, one trial
Protocol: FIGS. 8A-8F. Dose Tested for Lysosome Rescue. Progranulin MEF cells were treated with 1 concentration each of C15 and C19 and levels of lysotracker were analyzed to look for reduction of lysosome levels back to wild type levels. The stained area per cell is measured for compound C15 (FIG. 8A) and C19 (FIG. 8B), area intensity for compound C15 (FIG. 8C) and C19 (FIG. 8D), and total number of lysosomes for compound C15 (FIG. 8E) and C19 (FIG. 8F).
Progranulin MEF cells were treated with one aliquot each of C15 and C19 and levels of lysotracker were analyzed to look for reduction of lysosome levels back to wild type levels.

Progranulin [1] = test: Progranulin protein expression in primary rat neurons (immunoblot, densitometric quantitation); type: cell-based; settings: 24 hours, two concentrations
Protocol: FIGS. 1A-B. Neuro2A #48 cells show a marked increase in Progranulin levels due to Isoxazole treatment after 24 hours. (FIG. 1A) Cells were treated with Isoxazole in increasing concentrations ranging from 10 nM to 25 μM. […] (FIG. 1B) Primary rat neurons were treated for 24 hours with DMSO and two concentrations of Isoxazole to visualize the increase in Progranulin protein expression in the relevant in vivo cell type. […] Lower band: actin control. Bands at ˜75 kDa: Progranulin monomer. HMW bands: Progranulin multimers. Densitometric quantitation is shown on the right.
Immunoblotting and Quantification. […] Mouse progranulin was detected with linker-3 anti-progranulin antibody at 1:5000 dilution, β-actin with anti-β-actin antibody (Sigma A2228) at 1:5000 dilution, human progranulin with anti-PC cell-derived growth factor antibody (Invitrogen) at 1:1000 dilution, and GAPDH with anti-GAPDH antibody (Sigma) at 1:10,000 dilution. Bound IgG was detected by ECL. For quantitative immunoblotting, secondary antibodies labeled with IRDye® infrared dyes and an Odyssey® infrared imager (LI-COR Biosciences) were used following the manufacturer's instructions.

progranulin [2] = test: RT PCR of progranulin mRNA and pre-mRNA in Neuro2A cells; type: cell-based, mouse; settings: 48 hours, increasing concentrations
Protocol: FIG. 2. Neuro2A cells were treated for 48 hours with increasing concentrations of Isoxazole. RT PCR was conducted to measure increases in progranulin mRNA and pre-mRNA (hnRNA before splicing).
RNA Extraction and Quantitative PCR. Cells in 6-well plates were lysed in 500 μl of TRIzol® reagent/well. cDNA was reverse-transcribed with MultiScribe™ (Applied Biosystems). For some experiments, the Quick-RNA MiniPrep system (Zymo Research, Irvine, Calif.) was used to isolate total RNA. Primer sequences were as follows:
Quantitative PCRs (qPCRs; 10 μl) contained 20 ng of cDNA, 150 nM primer, and 5 μl of Fast SYBR Green PCR Master Mix (Applied Biosystems) and were performed in triplicate on an Applied Biosystems PRISM 7500 Fast sequence detection system. Relative mRNA levels were calculated using U36B or cyclophilin Q primers as internal controls.

Row | Structure (SMILES) | PGRN levels compared to DMSO (progranulin (PGRN)) | progranulin protein levels by immunoblotting (progranulin (PGRN)) | Luciferase activity over DMSO control (progranulin promoter) | also measured
1 | COc1ccccc1C(=O)NNC1C(=O)Nc2ccccc21 (stereo not shown) [Compound C15] | doubled | increased progranulin protein levels | dose dependent increase in luciferase activity | –
2 | CC(C)(C)c1cc2c(c(C(C)(C)C)c1)OC(c1cccc([N+](=O)[O-])c1O)N2 (stereo not shown) [Compound C19] | doubled | increased progranulin protein levels | only a small change | lysosome levels (lysotracker) (Progranulin MEF cells): marked decrease in lysosome levels
3 | c1cnoc1 [Isoxazole] | – | – | significant increase over control | Progranulin protein levels vs DMSO control (Progranulin [1]): significant increase over the DMSO control; progranulin mRNA (progranulin [2]): significant increases in a dose dependent manner; progranulin pre-mRNA (hnRNA before splicing) (progranulin [2]): significant increases in a dose dependent manner
4 | O=C(CCCCCCC(=O)Nc1ccccc1)NO [SAHA, reference compound] | – | – | – | Activation of luciferase reporter relative to base line (DMSO) (progranulin promoter; Neuro-2a #48 cells, SAHA 3 μM positive control, 24 hrs): 4-5 times base line
5 | CCCCCCCCCCCCC/C=C/[C@@H](O)[C@@H](N)COP(=O)([O-])OCC[N+](C)(C)C [sphingosinephosphorylcholine, reference compound] | – | – | increasing levels of luciferase activity over DMSO control | –
